Our source for the IC50 values is patent US9839629B2, “Inhibitors of the renal outer medullary potassium channel” (Merck Sharp & Dohme Corp., priority 2013, dated 2017).

This test concerns the target T1, ROMK (Kir1.1) channel (Homo sapiens, UniProt P48048).
T1 sequence (P48048 1-391): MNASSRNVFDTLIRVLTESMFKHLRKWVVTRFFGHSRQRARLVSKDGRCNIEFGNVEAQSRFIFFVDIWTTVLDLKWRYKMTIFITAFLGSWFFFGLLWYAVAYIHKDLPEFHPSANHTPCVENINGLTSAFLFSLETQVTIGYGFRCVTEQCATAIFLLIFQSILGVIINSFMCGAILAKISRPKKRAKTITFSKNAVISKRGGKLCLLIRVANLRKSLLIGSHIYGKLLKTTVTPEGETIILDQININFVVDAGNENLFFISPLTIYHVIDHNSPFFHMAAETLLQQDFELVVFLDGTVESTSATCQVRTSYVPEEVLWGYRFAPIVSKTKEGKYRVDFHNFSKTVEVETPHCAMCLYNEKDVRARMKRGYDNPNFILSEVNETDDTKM
The test is described as follows: Thallium Flux Assay. The test is classed as cell-based. Summed up: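 Thallium flux assay as described in WO 2013/062900. Compounds supplied as HCl salts were tested in salt form.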
With `Cc1c(N2CCC3(CCN(C[C@@H](O)c4ccc(-n5cnnn5)nn4)CC3)CC2)c(=O)c1=O` [Example 84, (R)-3-(9-(2-(6-(1H-tetrazol-1-yl)pyridazin-3-yl)-2-hydroxyethyl)-3,9-diazaspiro[5.5]undecan-3-yl)-4-methylcyclobut-3-ene-1,2-dione], the 50% inhibitory concentration (IC50) stood at 765 nM.
The compound `Cc1c(N2CCC3(CCN(C[C@H](O)c4cnc(-n5cnnn5)cn4)CC3)CC2)c(=O)c1=O` [Example 85, (S)-3-(9-(2-(5-(1H-tetrazol-1-yl)pyrazin-2-yl)-2-hydroxyethyl)-3,9-diazaspiro[5.5]undecan-3-yl)-4-methylcyclobut-3-ene-1,2-dione] registered an IC50 of 80 nM.
Under `Cc1c(N2CCC3(CCN(C[C@@H](O)c4cnc(-n5cnnn5)cn4)CC3)CC2)c(=O)c1=O` [Example 86, (R)-3-(9-(2-(5-(1H-tetrazol-1-yl)pyrazin-2-yl)-2-hydroxyethyl)-3,9-diazaspiro[5.5]undecan-3-yl)-4-methylcyclobut-3-ene-1,2-dione] stands 336 nM; under `Cc1c(N2CCC3(CCN(C[C@H](O)c4ccc(-n5cnnn5)cn4)CC3)CC2)c(=O)c1=O` [Example 87, (S)-3-(9-(2-(5-(1H-tetrazol-1-yl)pyridin-2-yl)-2-hydroxyethyl)-3,9-diazaspiro[5.5]undecan-3-yl)-4-methylcyclobut-3-ene-1,2-dione], 688 nM.
Under `Cc1c(N2CCC3(CCN(C[C@H](O)c4ccc5c(ccc6nnnn65)c4)CC3)CC2)c(=O)c1=O` [Example 88, (R)-3-(9-(2-hydroxy-2-(tetrazolo[1,5-a]quinolin-7-yl)ethyl)-3,9-diazaspiro[5.5]undecan-3-yl)-4-methylcyclobut-3-ene-1,2-dione] stands 223 nM; under `Cc1c(N2CCC3(CCN(C[C@@H](O)c4ccc5c(ccc6nnnn65)c4)CC3)CC2)c(=O)c1=O` [Example 89, (S)-3-(9-(2-hydroxy-2-(tetrazolo[1,5-a]quinolin-7-yl)ethyl)-3,9-diazaspiro[5.5]undecan-3-yl)-4-methylcyclobut-3-ene-1,2-dione], 257 nM.
Under `CO[C@H](CN1CCC2(CC1)CCN(C1=CC(=O)OC1)CC2)c1ccc2c(c1C)COC2=O` [Example 90, (S)-5-(1-methoxy-2-(9-(5-oxo-2,5-dihydrofuran-3-yl)-3,9-diazaspiro[5.5]undecan-3-yl)ethyl)-4-methylisobenzofuran-1(3H)-one] stands 165 nM; under `CO[C@@H](CN1CCC2(CC1)CCN(C1=CC(=O)OC1)CC2)c1ccc2c(c1C)COC2=O` [Example 91, (R)-5-(1-methoxy-2-(9-(5-oxo-2,5-dihydrofuran-3-yl)-3,9-diazaspiro[5.5]undecan-3-yl)ethyl)-4-methylisobenzofuran-1(3H)-one], 198 nM.
`CCOC1OC(=O)C=C1N1CCC2(CCN(C[C@H](O)c3ccc4c(c3C)COC4=O)CC2)CC1` (stereo partly drawn) [Example 92, 5-((1R)-2-(9-(2-ethoxy-5-oxo-2,5-dihydrofuran-3-yl)-3,9-diazaspiro[5.5]undecan-3-yl)-1-hydroxyethyl)-4-methylisobenzofuran-1(3H)-one] registered an IC50 of 539 nM.
For `Cc1c([C@@H](O)CN2CCC3(CC2)CCN(C2=CC(=O)OCC2)CC3)ccc2c1COC2=O` [Example 93, 5-{(1R)-1-hydroxy-2-[9-(6-oxo-3,6-dihydro-2H-pyran-4-yl)-3,9-diazaspiro[5.5]undec-3-yl]ethyl}-4-methyl-2-benzofuran-1(3H)-one], the 50% inhibitory concentration (IC50) was 146 nM.
For `CC1=C(N2CCC3(CCN(C[C@H](O)c4ccc5c(c4C)COC5=O)CC3)[C@@H](O)C2)COC1=O` [Example 94, 5-{(1R)-1-hydroxy-2-[(7R)-7-hydroxy-9-(4-methyl-5-oxo-2,5-dihydrofuran-3-yl)-3,9-diazaspiro[5.5]undec-3-yl]ethyl}-4-methyl-2-benzofuran-1(3H)-one], the IC50 was 639 nM.
For `COCO[C@H]1CN(C2=C(C)C(=O)OC2)CCC12CCN(C[C@H](O)c1ccc3c(c1C)COC3=O)CC2` [Example 95, 5-{(1R)-1-hydroxy-2-[(7R)-7-(methoxymethoxy)-9-(4-methyl-5-oxo-2,5-dihydrofuran-3-yl)-3,9-diazaspiro[5.5]undec-3-yl]ethyl}-4-methyl-2-benzofuran-1(3H)-one], it took 114 nM to reach half-maximal inhibition (IC50). This IC50 is about 5.6-fold lower than that of the compound before.
For `COCO[C@@H]1CN(C2=C(C)C(=O)OC2)CCC12CCN(C[C@H](O)c1ccc3c(c1C)COC3=O)CC2` [Example 96, 5-{(1R)-1-hydroxy-2-[(7S)-7-(methoxymethoxy)-9-(4-methyl-5-oxo-2,5-dihydrofuran-3-yl)-3,9-diazaspiro[5.5]undec-3-yl]ethyl}-4-methyl-2-benzofuran-1(3H)-one] the value was 132 nM; for `CO[C@H]1CN(C2=C(C)C(=O)OC2)CCC12CCN(C[C@H](O)c1ccc3c(c1C)COC3=O)CC2` [Example 97, 5-{(1R)-1-hydroxy-2-[(7R)-7-methoxy-9-(4-methyl-5-oxo-2,5-dihydrofuran-3-yl)-3,9-diazaspiro[5.5]undec-3-yl]ethyl}-4-methyl-2-benzofuran-1(3H)-one], 42 nM; for `CO[C@@H]1CN(C2=C(C)C(=O)OC2)CCC12CCN(C[C@H](O)c1ccc3c(c1C)COC3=O)CC2` [Example 98, 5-{(1R)-1-hydroxy-2-[(7S)-7-methoxy-9-(4-methyl-5-oxo-2,5-dihydrofuran-3-yl)-3,9-diazaspiro[5.5]undec-3-yl]ethyl}-4-methyl-2-benzofuran-1(3H)-one], 53 nM.
Regarding `O=C1C=C(N2CCC3(CCN(C(=O)Cc4ccc(-n5cnnn5)nc4)CC3)CC2)CO1` [Example 99, 4-(9-(2-(6-(1H-tetrazol-1-yl)pyridin-3-yl)acetyl)-3,9-diazaspiro[5.5]undecan-3-yl)furan-2(5H)-one], the midpoint of inhibition, the IC50, lay at 109 nM.
For `O=C1C=C(N2CCC3(CCN(C(=O)Cc4c(F)cc(-n5cnnn5)cc4F)CC3)CC2)CO1` [Example 100, 4-(9-{[2,6-difluoro-4-(1H-tetrazol-1-yl)phenyl]acetyl}-3,9-diazaspiro[5.5]undec-3-yl)furan-2(5H)-one], the IC50 is 408 nM. This IC50 is about 3.7-fold higher than that of the compound before.
Under `O=C1C=C(N2CCC3(CCN(C(=O)Cc4cnc(-n5cnnn5)c(F)c4)CC3)CC2)CO1` [Example 101, 4-(9-{[5-fluoro-6-(1H-tetrazol-1-yl)pyridin-3-yl]acetyl}-3,9-diazaspiro[5.5]undec-3-yl)furan-2(5H)-one] stands 246 nM; under `O=C1C=C(N2CCC3(CCN(C(=O)Cc4ccc(-n5cnnn5)cc4)CC3)CC2)CO1` [Example 102, 4-(9-{[4-(1H-tetrazol-1-yl)phenyl]acetyl}-3,9-diazaspiro[5.5]undec-3-yl)furan-2(5H)-one], 116 nM.
Regarding `O=C1C=C(N2CCC3(CCN(C(=O)C4CCc5cc(-n6cnnn6)ncc54)CC3)CC2)CO1` (centres unmarked) [Example 103, 4-(9-{[3-(1H-tetrazol-1-yl)-6,7-dihydro-5H-cyclopenta[c]pyridin-7-yl]carbonyl}-3,9-diazaspiro[5.5]undec-3-yl)furan-2(5H)-one], the concentration for half-maximal inhibition (IC50) was determined as 132 nM.
For `O=C1C=C(N2CCC3(CCN(C(=O)Cc4cc(F)c(-n5cnnn5)cc4F)CC3)CC2)CO1` [Example 104, 4-(9-{[2,5-difluoro-4-(1H-tetrazol-1-yl)phenyl]acetyl}-3,9-diazaspiro[5.5]undec-3-yl)furan-2(5H)-one] the value was 115 nM.
For `Cc1c(CC(=O)N2CCC3(CC2)CCN(C2=CC(=O)OC2)CC3)ccc2c1COC2=O` [Example 105, 4-methyl-5-{2-oxo-2-[9-(5-oxo-2,5-dihydrofuran-3-yl)-3,9-diazaspiro[5.5]undec-3-yl]ethyl}-2-benzofuran-1(3H)-one] the value was 483 nM; for `O=C1C=C(N2CCC3(CCN(C(=O)Cc4cnc(-n5cnnn5)cn4)CC3)CC2)CO1` [Example 106, 4-(9-{[5-(1H-tetrazol-1-yl)pyrazin-2-yl]acetyl}-3,9-diazaspiro[5.5]undec-3-yl)furan-2(5H)-one], 379 nM.

The IC50 is the midpoint of a concentration-inhibition curve. High values mean lower potency, low ones higher potency.
